Test [1] deals with 5'-AMP-activated protein kinase catalytic subunit alpha-2 (Homo sapiens) (UniProt P54646).
Test [2] addresses Calcium/calmodulin-dependent protein kinase type 1D (Homo sapiens) (UniProt Q8IU85).
Test [3] has as its target Calcium/calmodulin-dependent protein kinase type 1G (Homo sapiens) (UniProt Q96NX5).
For test [4], the target named is Calcium/calmodulin-dependent protein kinase type II subunit delta (Homo sapiens) (UniProt Q13557).
Test [5] concerns the target T1, Calcium/calmodulin-dependent protein kinase type IV (Homo sapiens) (UniProt Q16566).
T1 sequence (whole entry): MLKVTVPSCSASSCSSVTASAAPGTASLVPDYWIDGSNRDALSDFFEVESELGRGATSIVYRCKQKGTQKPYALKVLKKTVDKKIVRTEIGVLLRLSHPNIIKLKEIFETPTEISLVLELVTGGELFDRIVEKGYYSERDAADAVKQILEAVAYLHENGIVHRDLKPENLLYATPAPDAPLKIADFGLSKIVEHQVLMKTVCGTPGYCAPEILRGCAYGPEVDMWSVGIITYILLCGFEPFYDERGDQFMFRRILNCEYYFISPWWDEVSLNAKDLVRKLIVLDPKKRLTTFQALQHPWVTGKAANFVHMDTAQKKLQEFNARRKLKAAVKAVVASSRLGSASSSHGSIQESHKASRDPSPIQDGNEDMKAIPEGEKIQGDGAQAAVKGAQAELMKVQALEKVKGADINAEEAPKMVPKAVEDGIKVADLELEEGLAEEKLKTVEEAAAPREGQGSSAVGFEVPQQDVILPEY

Test [6] addresses Calcium/calmodulin-dependent protein kinase kinase 2 (Homo sapiens, UniProt Q96RR4).
Test [7] addresses Casein kinase I isoform gamma-3 (Homo sapiens) (UniProt Q9Y6M4).
The target in test [8] is Death-associated protein kinase 3 (Homo sapiens) (UniProt O43293).
For test [9], the target named is Dual specificity mitogen-activated protein kinase kinase 2 (Homo sapiens, UniProt P36507).
Sequence of Dual specificity mitogen-activated protein kinase kinase 2 (P36507 whole entry): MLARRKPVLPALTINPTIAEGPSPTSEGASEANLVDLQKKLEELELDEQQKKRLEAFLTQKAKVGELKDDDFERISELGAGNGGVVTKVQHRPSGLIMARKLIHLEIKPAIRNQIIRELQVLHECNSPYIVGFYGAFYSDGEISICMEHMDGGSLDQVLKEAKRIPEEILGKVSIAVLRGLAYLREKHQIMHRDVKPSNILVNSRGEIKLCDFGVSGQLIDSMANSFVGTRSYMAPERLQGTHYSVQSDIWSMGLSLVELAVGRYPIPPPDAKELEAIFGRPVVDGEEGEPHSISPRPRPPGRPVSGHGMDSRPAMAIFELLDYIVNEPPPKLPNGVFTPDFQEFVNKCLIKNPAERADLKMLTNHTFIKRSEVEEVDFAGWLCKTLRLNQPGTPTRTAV
Test [10] deals with T2, Dual specificity mitogen-activated protein kinase kinase 6 (Homo sapiens) (UniProt P52564).
T2 sequence (whole entry): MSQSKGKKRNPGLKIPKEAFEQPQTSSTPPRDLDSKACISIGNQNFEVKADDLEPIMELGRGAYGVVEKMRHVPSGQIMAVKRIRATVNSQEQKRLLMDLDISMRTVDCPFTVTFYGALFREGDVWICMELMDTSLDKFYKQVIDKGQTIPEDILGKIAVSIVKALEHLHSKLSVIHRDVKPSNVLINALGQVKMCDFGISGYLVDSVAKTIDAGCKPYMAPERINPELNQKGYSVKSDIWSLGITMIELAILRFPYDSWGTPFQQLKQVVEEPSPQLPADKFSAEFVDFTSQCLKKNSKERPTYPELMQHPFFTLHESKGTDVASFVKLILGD

Test [11] deals with Mitogen-activated protein kinase 3 (Homo sapiens, UniProt P27361).
In test [12] the target is Serine/threonine-protein kinase Nek6 (Homo sapiens) (UniProt Q9HC98).
Sequence of Serine/threonine-protein kinase Nek6 (Homo sapiens) (Q9HC98 whole entry): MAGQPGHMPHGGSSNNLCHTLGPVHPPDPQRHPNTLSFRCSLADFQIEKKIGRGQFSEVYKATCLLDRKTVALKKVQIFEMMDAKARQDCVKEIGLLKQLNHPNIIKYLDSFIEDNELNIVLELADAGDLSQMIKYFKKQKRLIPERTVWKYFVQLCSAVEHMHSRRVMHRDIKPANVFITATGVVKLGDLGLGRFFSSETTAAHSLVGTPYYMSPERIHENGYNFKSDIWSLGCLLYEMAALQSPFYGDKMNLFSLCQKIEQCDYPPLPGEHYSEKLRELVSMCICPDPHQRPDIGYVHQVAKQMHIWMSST
The target in test [13] is Cyclin-dependent kinase 16 (Homo sapiens) (UniProt Q00536).
Sequence of Cyclin-dependent kinase 16 (Homo sapiens) (Q00536 whole entry): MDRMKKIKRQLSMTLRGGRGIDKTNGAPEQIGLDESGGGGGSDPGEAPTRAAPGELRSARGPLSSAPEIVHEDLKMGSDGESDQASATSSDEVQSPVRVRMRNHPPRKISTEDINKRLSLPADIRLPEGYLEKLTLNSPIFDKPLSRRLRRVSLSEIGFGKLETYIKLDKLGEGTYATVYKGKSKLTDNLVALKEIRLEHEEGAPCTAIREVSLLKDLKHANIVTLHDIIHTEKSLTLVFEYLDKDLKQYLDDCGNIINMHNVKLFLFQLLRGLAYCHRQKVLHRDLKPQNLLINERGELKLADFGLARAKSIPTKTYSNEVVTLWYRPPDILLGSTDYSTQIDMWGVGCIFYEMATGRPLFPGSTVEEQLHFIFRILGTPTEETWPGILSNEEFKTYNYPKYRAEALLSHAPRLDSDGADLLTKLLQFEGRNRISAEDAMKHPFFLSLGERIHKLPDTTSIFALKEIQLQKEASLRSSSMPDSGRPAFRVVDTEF
Test [14] addresses Serine/threonine-protein kinase PLK1 (Homo sapiens) (UniProt P53350).
For test [15], the target named is Serine/threonine-protein kinase RIO2 (Homo sapiens) (UniProt Q9BVS4).
Sequence of Serine/threonine-protein kinase RIO2 (Homo sapiens) (Q9BVS4 whole entry, looked up): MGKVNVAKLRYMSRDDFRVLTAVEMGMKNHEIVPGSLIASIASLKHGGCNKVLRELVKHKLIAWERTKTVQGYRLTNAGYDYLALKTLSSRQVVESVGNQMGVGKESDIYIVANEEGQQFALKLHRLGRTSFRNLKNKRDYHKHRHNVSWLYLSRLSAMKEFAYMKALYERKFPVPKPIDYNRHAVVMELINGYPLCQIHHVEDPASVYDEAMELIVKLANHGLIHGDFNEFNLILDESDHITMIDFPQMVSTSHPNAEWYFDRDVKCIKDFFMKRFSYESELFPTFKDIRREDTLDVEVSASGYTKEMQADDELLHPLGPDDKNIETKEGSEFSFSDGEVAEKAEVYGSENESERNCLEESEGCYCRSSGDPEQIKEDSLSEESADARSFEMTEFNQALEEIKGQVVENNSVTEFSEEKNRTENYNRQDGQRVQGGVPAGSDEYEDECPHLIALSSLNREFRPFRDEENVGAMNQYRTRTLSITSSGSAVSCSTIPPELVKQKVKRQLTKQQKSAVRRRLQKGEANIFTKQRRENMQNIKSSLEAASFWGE
Test [16] deals with Ribosomal protein S6 kinase alpha-3 (Homo sapiens) (UniProt P51812).
Sequence of Ribosomal protein S6 kinase alpha-3 (Homo sapiens) (P51812 whole entry): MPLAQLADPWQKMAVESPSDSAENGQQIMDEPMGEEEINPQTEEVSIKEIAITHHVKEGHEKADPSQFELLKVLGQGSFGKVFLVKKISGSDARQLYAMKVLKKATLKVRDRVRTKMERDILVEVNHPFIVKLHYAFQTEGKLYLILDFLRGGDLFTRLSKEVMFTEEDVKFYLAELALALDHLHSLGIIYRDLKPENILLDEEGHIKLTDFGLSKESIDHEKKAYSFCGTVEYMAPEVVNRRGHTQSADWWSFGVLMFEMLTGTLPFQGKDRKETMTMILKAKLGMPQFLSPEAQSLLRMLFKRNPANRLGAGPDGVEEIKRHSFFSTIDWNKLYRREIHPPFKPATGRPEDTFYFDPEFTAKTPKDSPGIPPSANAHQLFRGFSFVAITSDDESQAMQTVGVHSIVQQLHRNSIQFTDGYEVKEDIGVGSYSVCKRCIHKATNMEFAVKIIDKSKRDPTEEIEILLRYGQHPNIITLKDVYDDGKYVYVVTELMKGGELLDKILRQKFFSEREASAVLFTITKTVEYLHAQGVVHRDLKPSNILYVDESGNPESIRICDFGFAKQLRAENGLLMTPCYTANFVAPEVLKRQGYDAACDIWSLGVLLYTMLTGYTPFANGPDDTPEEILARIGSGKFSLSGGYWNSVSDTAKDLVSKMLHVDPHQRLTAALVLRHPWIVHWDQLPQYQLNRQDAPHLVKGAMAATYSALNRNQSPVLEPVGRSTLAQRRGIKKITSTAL
In test [17] the target is Serine/threonine-protein kinase 38 (Homo sapiens) (UniProt Q15208).
Sequence of Serine/threonine-protein kinase 38 (Homo sapiens) (Q15208 2-465 limits assumed): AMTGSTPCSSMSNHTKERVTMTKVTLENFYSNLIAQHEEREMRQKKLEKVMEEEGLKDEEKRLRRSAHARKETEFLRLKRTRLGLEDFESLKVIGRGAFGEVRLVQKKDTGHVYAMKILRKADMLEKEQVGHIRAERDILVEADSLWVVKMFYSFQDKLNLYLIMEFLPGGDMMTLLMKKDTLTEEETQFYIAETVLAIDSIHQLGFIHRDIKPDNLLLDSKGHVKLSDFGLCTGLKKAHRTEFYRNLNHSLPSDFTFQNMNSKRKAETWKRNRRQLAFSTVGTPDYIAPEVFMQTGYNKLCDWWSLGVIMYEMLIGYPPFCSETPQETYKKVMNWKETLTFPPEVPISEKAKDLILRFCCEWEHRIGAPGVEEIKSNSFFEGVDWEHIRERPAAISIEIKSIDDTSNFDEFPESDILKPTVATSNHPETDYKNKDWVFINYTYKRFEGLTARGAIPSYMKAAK
Test [18] concerns the target Serine/threonine-protein kinase 26 (Homo sapiens) (UniProt Q9P289).
Test [19] has as its target T3, Lymphokine-activated killer T-cell-originated protein kinase (Homo sapiens) (UniProt Q96KB5).
T3 sequence (whole entry): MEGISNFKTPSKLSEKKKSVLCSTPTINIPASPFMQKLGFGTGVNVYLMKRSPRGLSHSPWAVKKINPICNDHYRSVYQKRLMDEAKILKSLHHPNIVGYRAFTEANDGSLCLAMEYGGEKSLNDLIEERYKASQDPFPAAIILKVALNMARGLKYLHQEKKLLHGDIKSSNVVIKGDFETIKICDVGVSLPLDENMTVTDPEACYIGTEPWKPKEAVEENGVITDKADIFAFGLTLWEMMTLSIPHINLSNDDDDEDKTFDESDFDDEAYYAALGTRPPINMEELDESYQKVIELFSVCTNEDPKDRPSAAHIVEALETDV

The target of test [20] is T4, Serine/threonine-protein kinase VRK3 (Homo sapiens) (UniProt Q8IV63).
T4 sequence (whole entry): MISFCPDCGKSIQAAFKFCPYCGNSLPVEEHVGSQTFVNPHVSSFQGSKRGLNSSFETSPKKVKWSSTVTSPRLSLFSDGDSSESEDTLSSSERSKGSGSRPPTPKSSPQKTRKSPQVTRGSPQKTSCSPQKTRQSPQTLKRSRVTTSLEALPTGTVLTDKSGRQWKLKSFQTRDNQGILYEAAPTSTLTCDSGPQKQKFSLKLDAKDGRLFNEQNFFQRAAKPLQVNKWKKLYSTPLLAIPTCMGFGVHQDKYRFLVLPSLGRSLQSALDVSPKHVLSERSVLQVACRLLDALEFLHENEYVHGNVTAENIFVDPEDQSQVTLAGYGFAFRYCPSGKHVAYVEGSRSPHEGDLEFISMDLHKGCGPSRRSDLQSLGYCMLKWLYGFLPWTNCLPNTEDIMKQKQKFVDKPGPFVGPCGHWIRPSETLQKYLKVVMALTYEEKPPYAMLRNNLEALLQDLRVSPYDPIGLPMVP

Sequence of Calcium/calmodulin-dependent protein kinase type II subunit delta (Homo sapiens) (Q13557 whole entry): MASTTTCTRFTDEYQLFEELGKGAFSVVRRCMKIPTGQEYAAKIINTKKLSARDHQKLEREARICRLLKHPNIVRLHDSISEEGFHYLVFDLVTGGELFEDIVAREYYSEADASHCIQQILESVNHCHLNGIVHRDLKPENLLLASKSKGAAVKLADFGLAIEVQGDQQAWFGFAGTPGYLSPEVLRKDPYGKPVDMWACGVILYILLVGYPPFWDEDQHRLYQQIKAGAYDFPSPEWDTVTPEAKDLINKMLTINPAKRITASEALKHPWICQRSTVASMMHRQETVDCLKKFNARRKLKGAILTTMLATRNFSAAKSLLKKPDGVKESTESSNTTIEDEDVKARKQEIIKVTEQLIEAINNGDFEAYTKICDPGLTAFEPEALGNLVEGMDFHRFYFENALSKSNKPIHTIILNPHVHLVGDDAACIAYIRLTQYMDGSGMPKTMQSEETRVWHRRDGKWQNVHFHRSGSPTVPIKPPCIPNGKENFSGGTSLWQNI
Sequence of Calcium/calmodulin-dependent protein kinase type 1D (Homo sapiens) (Q8IU85 whole entry, looked up): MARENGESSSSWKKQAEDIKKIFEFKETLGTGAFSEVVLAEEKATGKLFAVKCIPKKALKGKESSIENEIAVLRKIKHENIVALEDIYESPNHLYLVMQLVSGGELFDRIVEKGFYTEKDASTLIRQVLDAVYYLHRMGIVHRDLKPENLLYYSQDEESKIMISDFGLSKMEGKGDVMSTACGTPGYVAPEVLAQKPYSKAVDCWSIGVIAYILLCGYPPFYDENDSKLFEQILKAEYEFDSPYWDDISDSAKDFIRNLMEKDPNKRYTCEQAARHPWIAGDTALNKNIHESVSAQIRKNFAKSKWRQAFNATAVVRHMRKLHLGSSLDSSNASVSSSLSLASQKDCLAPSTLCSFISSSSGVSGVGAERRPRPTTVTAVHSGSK
Sequence of Serine/threonine-protein kinase PLK1 (Homo sapiens) (P53350 whole entry): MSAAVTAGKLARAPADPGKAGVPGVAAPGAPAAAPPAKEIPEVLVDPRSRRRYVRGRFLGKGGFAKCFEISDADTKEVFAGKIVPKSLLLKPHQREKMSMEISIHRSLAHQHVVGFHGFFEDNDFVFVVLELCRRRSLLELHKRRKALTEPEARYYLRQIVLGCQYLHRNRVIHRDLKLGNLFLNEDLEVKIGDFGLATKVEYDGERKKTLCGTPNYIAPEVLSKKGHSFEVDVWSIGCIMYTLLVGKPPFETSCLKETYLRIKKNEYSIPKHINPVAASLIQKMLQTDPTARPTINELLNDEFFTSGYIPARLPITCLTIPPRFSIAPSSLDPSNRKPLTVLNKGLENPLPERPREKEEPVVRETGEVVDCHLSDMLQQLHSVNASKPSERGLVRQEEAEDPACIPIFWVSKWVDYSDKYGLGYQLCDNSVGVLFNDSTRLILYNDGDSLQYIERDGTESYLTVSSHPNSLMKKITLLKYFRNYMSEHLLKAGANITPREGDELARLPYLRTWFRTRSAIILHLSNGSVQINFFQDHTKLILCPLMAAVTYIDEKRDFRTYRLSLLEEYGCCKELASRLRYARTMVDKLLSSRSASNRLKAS
Sequence of Serine/threonine-protein kinase 26 (Homo sapiens) (Q9P289 2-416 limits assumed): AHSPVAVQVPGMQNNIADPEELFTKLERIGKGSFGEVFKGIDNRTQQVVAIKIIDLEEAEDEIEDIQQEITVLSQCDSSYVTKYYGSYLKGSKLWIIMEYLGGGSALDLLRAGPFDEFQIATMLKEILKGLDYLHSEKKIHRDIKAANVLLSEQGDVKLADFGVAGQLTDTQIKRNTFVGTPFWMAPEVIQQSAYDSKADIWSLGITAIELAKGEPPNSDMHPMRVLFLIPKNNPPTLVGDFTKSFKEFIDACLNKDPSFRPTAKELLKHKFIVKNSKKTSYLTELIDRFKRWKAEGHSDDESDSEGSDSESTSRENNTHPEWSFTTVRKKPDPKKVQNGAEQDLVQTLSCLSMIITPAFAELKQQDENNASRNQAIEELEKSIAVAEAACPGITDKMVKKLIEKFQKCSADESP

For orientation: ΔTm means the change in melting temperature against a reference sample. On to `O=C1NC(=O)c2c1c1c3ccccc3[nH]c1n1cncc21` [ISOGRANULATIMIDE], for which the ΔTm was determined as 3.6 °C in test [1]; 1 °C in [2]; 3.4 °C in test [3]; 1 °C in test [4]; 6 °C in [5]; 0.5 °C in test [6]. The ΔTm came out at 3.6 °C in test [7]; 5.3 °C in [8]; 5.3 °C in test [9]; 14.6 °C in test [10]; 2 °C in [11]; 1.5 °C in [12]. For the same compound, the ΔTm in test [13] was determined as 3.1 °C; in [14], 9.3 °C; in test [15] it was 7.3 °C; in test [16] it was 5.2 °C; in test [17] it was 2.4 °C; in test [18] it was 5.4 °C. The figures for the ΔTm in [19] and in [20] were 1 °C and 3.7 °C, respectively.

`CCOc1ccc(/C=C2/SC(=O)N(CCN)C2=O)cc1` [HIAZOLIDINEDIONE1]: the ΔTm is 0.1 °C in test [1]; -0.2 °C in test [2]; 0.2 °C in [3]; 0 °C in test [4]; 0.4 °C in test [5]; -0.4 °C in test [6]. Moreover, the ΔTm in test [7] was -0.1 °C; in [8], 0.3 °C; in [9], 0.4 °C; in test [10], 0.1 °C; in [11], -0.1 °C; in test [12], -1.7 °C. Further, the ΔTm in test [13] was 0.2 °C; in [14] it was 0.6 °C; in test [15] it was -0.2 °C; in [16] it was 0 °C; in test [17], 0.5 °C; in test [18], -0.1 °C. In addition, the figures for the ΔTm in test [19] and in test [20] were 0.2 °C and -1.1 °C, respectively.

With `NS(=O)(=O)c1ccc(Nc2nc(OCC3CCCCC3)c3nc[nH]c3n2)cc1`, the ΔTm was found to be 1.9 °C in test [1]; 0.8 °C in test [2]; 1.6 °C in test [3]; 0.2 °C in test [4]; 0.7 °C in [5]; 0.8 °C in [6]. Moreover, the ΔTm in [7] was determined as 2.2 °C; in [8] it was 0.8 °C; in [9], 0.8 °C; in [10] it was 2 °C; in test [11], 0.1 °C; in test [12], 0.1 °C. For the same compound, the ΔTm came to 3.2 °C in test [13]; 5.1 °C in test [14]; 4 °C in test [15]; 1.3 °C in [16]; 1.5 °C in test [17]; 5.7 °C in test [18]. Besides, the ΔTm in test [19] amounted to 0.9 °C; in [20], 4.7 °C.

As for `COc1ccc(S(=O)(=O)N(CCO)c2ccccc2CN(C)C/C=C/c2ccc(Cl)cc2)cc1`, the ΔTm in test [1] was -1 °C; in test [2], -0.3 °C; in test [3], 0.3 °C; in test [4], -1.2 °C; in [5] it was -0.3 °C; in [6], 0 °C. The ΔTm was 0 °C in test [7]; 0.2 °C in test [8]; -0.2 °C in test [9]; 0.4 °C in test [10]; 0.1 °C in [11]; 0.3 °C in test [12]. In addition, the ΔTm in test [13] is -0.6 °C; in test [14], -0.2 °C; in test [15], -0.4 °C; in [16], -0.9 °C; in test [17], -0.2 °C; in test [18], -0.1 °C. The ΔTm was -0.1 °C in [19] and -0.6 °C in [20].

With `Cc1cc(Nc2nc(-c3ccccc3)nc3ccccc23)n[nH]1`, the ΔTm in test [1] was determined as 5.8 °C; in test [2], 3.5 °C; in [3], 3.7 °C; in test [4], 0.7 °C; in test [5], 4.7 °C; in test [6], 2 °C. Besides, the ΔTm in test [7] was found to be 2.8 °C; in [8], 6.5 °C; in test [9], 3.2 °C; in test [10], 2.3 °C; in [11], 0.1 °C; in test [12], 0.4 °C. The ΔTm is 1.4 °C in test [13]; 10.8 °C in [14]; 5.3 °C in [15]; 0.8 °C in test [16]; 4 °C in [17]; 9.5 °C in [18]. Besides, the ΔTm in [19] was 0.9 °C; in test [20], 6.6 °C.

With `CSc1nc(-c2ccc(F)cc2)c(-c2ccnc(NC(C)c3ccccc3)c2)[nH]1` (racemic), the ΔTm was -0.4 °C in [1]; 0.5 °C in [2]; 1.9 °C in test [3]; 0.9 °C in test [4]; -0.3 °C in [5]; 0.7 °C in [6]. The ΔTm was found to be 3.4 °C in test [7]; 2.4 °C in [8]; 0.1 °C in test [9]; 0.5 °C in test [10]; 0 °C in test [11]; 0.5 °C in [12]. In addition, the ΔTm is 0.4 °C in test [13]; 0.9 °C in test [14]; 0 °C in test [15]; 0.4 °C in [16]; 0.3 °C in test [17]; -0.1 °C in test [18]. Moreover, the figures for the ΔTm in test [19] and in test [20] were 0.4 °C and -0.3 °C, respectively.

In the case of `Nc1cccc(-c2cc3c(Oc4cccc(O)c4)ncnc3[nH]2)c1`, the ΔTm in test [1] turned out to be 0.6 °C; in [2], 0.3 °C; in [3], 1 °C; in test [4], 0.1 °C; in [5], 0.2 °C; in test [6], 1.4 °C. In addition, the ΔTm is 1 °C in [7]; 0.4 °C in test [8]; 2.7 °C in test [9]; 2.7 °C in test [10]; 0 °C in test [11]; -1.3 °C in test [12]. Moreover, the ΔTm in test [13] amounted to 0.1 °C; in test [14] it was 4.4 °C; in test [15], 2.4 °C; in test [16], 0.4 °C; in test [17], 2.2 °C; in test [18], 2.2 °C. The results for the ΔTm in [19] and in test [20] were 0.6 °C and 2.2 °C, respectively.

(Values after ChEMBL document CHEMBL1145498, “A systematic interaction map of validated kinase inhibitors with Ser/Thr kinases” (Proc Natl Acad Sci U S A, 2007).)
